Test results taken from patent US20140206681A1, “BTK INHIBITORS” (priority 2013, published 2014).
pIC50: −log10 of the molar value.

Target: T1, BTK enzyme (recombinant full-length BTK, hBTK) (Homo sapiens, UniProt Q06187)
T1 construct: recombinant protein from baculovirus-transfected Sf9 cells: full-length BTK, 6HIS-tag cleaved; 6HIS (cleaved yes); made in house; host or cells: baculovirus-transfected Sf9 cells
Assay: BTK enzyme activity assay, LANCE TR-FRET
Type: biochemical
Settings: 50 pM hBTK, 2 μM biotin-A5-peptide, 25 μM ATP; 60 min compound & enzyme incubation; read-out: IC50 BTK activity value

T1 sequence (Q06187 whole entry): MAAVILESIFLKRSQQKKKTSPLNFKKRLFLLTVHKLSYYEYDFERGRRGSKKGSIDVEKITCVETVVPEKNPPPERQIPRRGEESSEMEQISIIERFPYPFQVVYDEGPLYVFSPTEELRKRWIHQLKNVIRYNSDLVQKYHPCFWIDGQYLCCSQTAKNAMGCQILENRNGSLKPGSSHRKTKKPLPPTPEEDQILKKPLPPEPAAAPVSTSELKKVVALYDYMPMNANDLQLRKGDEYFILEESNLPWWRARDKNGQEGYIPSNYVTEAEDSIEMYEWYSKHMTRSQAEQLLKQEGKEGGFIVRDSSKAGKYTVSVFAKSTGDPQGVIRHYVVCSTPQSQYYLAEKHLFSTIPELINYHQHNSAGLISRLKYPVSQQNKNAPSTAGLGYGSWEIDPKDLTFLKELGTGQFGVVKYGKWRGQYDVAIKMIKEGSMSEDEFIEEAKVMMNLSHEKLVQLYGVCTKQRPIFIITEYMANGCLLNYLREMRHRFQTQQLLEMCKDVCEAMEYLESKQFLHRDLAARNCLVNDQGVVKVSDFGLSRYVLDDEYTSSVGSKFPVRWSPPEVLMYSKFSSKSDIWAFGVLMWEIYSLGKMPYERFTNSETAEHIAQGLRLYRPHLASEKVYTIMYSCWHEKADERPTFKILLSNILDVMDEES

pIC50	Structure (SMILES)
8.89	Nc1nccn2c([C@H]3CC[C@@H]4COC(=O)N4C3)nc(-c3ccc(C(=O)Nc4cc(C(F)(F)F)ccn4)cc3F)c12 (stereo in doubt) [Example 13, 4-(8-amino-3-((6S,8aR)-3-oxohexahydro-1H-oxazolo[3,4-a]pyridin-6-yl)imidazo[1,5-a]pyrazin-1-yl)-3-fluoro-N-(4-(trifluoromethyl)pyridin-2-yl)benzamide]
9.62	Nc1nccn2c([C@@H]3CC[C@H]4CCC(=O)N4C3)nc(-c3ccc(C(=O)Nc4cc(OC5CC5)ccn4)cc3)c12 [Example 5, 4-(8-amino-3-((6R,8aS)-3-oxooctahydroindolizin-6-yl)imidazo[1,5-a]pyrazin-1-yl)-N-(4-cyclopropoxypyridin-2-yl)benzamide]
7.22	Nc1nccn2c([C@@H]3CC[C@H]4CCC(=O)N4C3)nc(-c3ccc(C(=O)Nc4cc(C5CCC5)ccn4)cc3)c12 [Example 7, 4-(8-amino-3-((6R,8aS)-3-oxooctahydroindolizin-6-yl)imidazo[1,5-a]pyrazin-1-yl)-N-(4-cyclobutylpyridin-2-yl)benzamide]
10.08	Nc1nccn2c([C@@H]3CC[C@H]4COC(=O)N4C3)nc(-c3ccc(C(=O)Nc4cc(C(F)(F)F)ccn4)cc3F)c12 [Example 12, 4-(8-amino-3-((6R,8aS)-3-oxohexahydro-1H-oxazolo[3,4-a]pyridin-6-yl)imidazo[1,5-a]pyrazin-1-yl)-3-fluoro-N-(4-(trifluoromethyl)pyridin-2-yl)benzamide]
9.92	Nc1nccn2c([C@@H]3CC[C@H]4CCC(=O)N4C3)nc(-c3ccc(C(=O)Nc4cc(C(F)F)ccn4)cc3F)c12 [Example 14, 4-{8-amino-3-[(6R,8aS)-3-oxooctahydroindolizin-6-yl]imidazo[1,5-a]pyrazin-1-yl}-N-[4-(difluoromethyl)pyridin-2-yl]-3-fluorobenzamide]
9.51	Nc1nccn2c([C@@H]3CC[C@H]4CCC(=O)N4C3)nc(-c3ccc(C(=O)Nc4cc(C(F)F)ccn4)cc3)c12 [Example 17]
9.39	Cc1cc(-c2nc([C@@H]3CC[C@H]4CCC(=O)N4C3)n3ccnc(N)c23)ccc1C(=O)Nc1cc(C(F)(F)F)ccn1 [Example 22, 4-{8-amino-3-[(6R,8aS)-3-oxooctahydroindolizin-6-yl]imidazo[1,5-a]pyrazin-1-yl}-2-methyl-N-[4-(trifluoromethyl)pyridin-2-yl]benzamide]
9.27	CC(F)(F)c1ccnc(NC(=O)c2ccc(-c3nc([C@@H]4CC[C@H]5CCC(=O)N5C4)n4ccnc(N)c34)cc2F)c1 [Example 25, 4-{8-amino-3-[(6R,8aS)-3-oxooctahydroindolizin-6-yl]imidazo[1,5-a]pyrazin-1-yl}-N-[4-(1,1-difluoroethyl)pyridin-2-yl]-2-fluorobenzamide]
8.82	Nc1nccn2c([C@@H]3CC[C@H]4CCC(=O)N4C3)nc(-c3ccc(C(=O)Nc4cc(C(F)F)ccn4)c(F)c3)c12 [Example 26, 4-{8-amino-3-[(6R,8aS)-3-oxooctahydroindolizin-6-yl]imidazo[1,5-a]pyrazin-1-yl}-N-[4-(difluoromethyl)pyridin-2-yl]-2-fluorobenzamide]
8.96	Nc1nccn2c([C@@H]3CC[C@H]4CCC(=O)N4C3)nc(-c3ccc(C(=O)Nc4cc(C5CC5)ccn4)c(F)c3)c12 [Example 27, 4-{8-amino-3-[(6R,8aS)-3-oxooctahydroindolizin-6-yl]imidazo[1,5-a]pyrazin-1-yl}-N-(4-cyclopropylpyridin-2-yl)-2-fluorobenzamide]
9.19	Cc1cc(-c2nc([C@@H]3CC[C@H]4CCC(=O)N4C3)n3ccnc(N)c23)ccc1C(=O)Nc1cc(C2CC2)ccn1 [Example 28, 4-{8-amino-3-[(6R,8aS)-3-oxooctahydroindolizin-6-yl]imidazo[1,5-a]pyrazin-1-yl}-N-(4-cyclopropylpyridin-2-yl)-2-methylbenzamide]
8.72	Nc1nccn2c([C@@H]3CC[C@H]4CCC(=O)N4C3)nc(-c3ccc(C(=O)Nc4cc(C5(F)COC5)ccn4)cc3)c12 [Example 29, 4-{8-amino-3-[(6R,8aS)-3-oxooctahydroindolizin-6-yl]imidazo[1,5-a]pyrazin-1-yl}-N-[4-(3-fluorooxetan-3-yl)pyridin-2-yl]benzamide]
9.07	CC(C)(F)c1ccnc(NC(=O)c2ccc(-c3nc([C@@H]4CC[C@H]5CCC(=O)N5C4)n4ccnc(N)c34)cc2)c1 [Example 30, 4-{8-amino-3-[(6R,8aS)-3-oxooctahydroindolizin-6-yl]imidazo[1,5-a]pyrazin-1-yl}-N-[4-(1-fluoro-1-methylethyl)pyridin-2-yl]benzamide]
9.68	C[C@H]1OC(=O)N2C[C@H](c3nc(-c4ccc(C(=O)Nc5cc(C6CC6)ccn5)cc4F)c4c(N)nccn34)CC[C@@H]12 [Example 32, 4-{8-amino-3-[(1R,6R,8aS)-1-methyl-3-oxohexahydro[1,3]oxazolo[3,4-a]pyridin-6-yl]imidazo[1,5-a]pyrazin-1-yl}-N-(4-cyclopropylpyridin-2-yl)-3-fluorobenzamide]
8.60	N#Cc1ccnc(NC(=O)c2ccc(-c3nc([C@@H]4CC[C@H]5CCC(=O)N5C4)n4ccnc(N)c34)cc2F)c1 [Example 34, 4-{8-amino-3-[(6R,8aS)-3-oxooctahydroindolizin-6-yl]imidazo[1,5-a]pyrazin-1-yl}-N-(4-cyanopyridin-2-yl)-2-fluorobenzamide]
8.96	COc1cc(C(=O)Nc2cc(C#N)ccn2)ccc1-c1nc([C@@H]2CC[C@H]3CCC(=O)N3C2)n2ccnc(N)c12 [Example 35, 4-{8-amino-3-[(6R,8aS)-3-oxooctahydroindolizin-6-yl]imidazo[1,5-a]pyrazin-1-yl}-N-(4-cyanopyridin-2-yl)-3-methoxybenzamide]
9.01	Cc1cc(-c2nc([C@@H]3CC[C@H]4CCC(=O)N4C3)n3ccnc(N)c23)ccc1C(=O)Nc1cc(C#N)ccn1 [Example 36, 4-{8-amino-3-[(6R,8aS)-3-oxooctahydroindolizin-6-yl]imidazo[1,5-a]pyrazin-1-yl}-N-(4-cyanopyridin-2-yl)-2-methylbenzamide]
9.41	C[C@@H]1OC(=O)N2C[C@H](c3nc(-c4ccc(C(=O)Nc5cc(C6CC6)ccn5)cc4F)c4c(N)nccn34)CC[C@@H]12 [Example 37, 4-{8-amino-3-[(1S,6R,8aS)-1-methyl-3-oxohexahydro[1,3]oxazolo[3,4-a]pyridin-6-yl]imidazo[1,5-a]pyrazin-1-yl}-N-(4-cyclopropylpyridin-2-yl)-3-fluorobenzamide]

Same assay, conditions: IC50 BTK activity value, 50 pM hBTK, 2 μM biotin-A5-peptide, 25 μM ATP; 60 min compound & enzyme incubation

Structure (SMILES)	pIC50
Nc1nccn2c([C@H]3CC[C@H]4COC(=O)N4C3)nc(-c3ccc(C(=O)Nc4cc(C(F)(F)F)ccn4)cc3)c12 [Example 1, 4-(8-amino-3-((6S,8aS)-3-oxohexahydro-1H-oxazolo[3,4-a]pyridin-6-yl)imidazo[1,5-a]pyrazin-1-yl)-N-(4-(trifluoromethyl)pyridin-2-yl)benzamide]	8.26
Nc1nccn2c([C@@H]3CC[C@@H]4COC(=O)N4C3)nc(-c3ccc(C(=O)Nc4cc(C(F)(F)F)ccn4)cc3)c12 [Example 2, 4-(8-amino-3-((6R,8aR)-3-oxohexahydro-1H-oxazolo[3,4-a]pyridin-6-yl)imidazo[1,5-a]pyrazin-1-yl)-N-(4-(trifluoromethyl)pyridin-2-yl)benzamide]	7.81
